Data from article PMC10644720 (Frontiers in Pharmacology, 2023).
One block for each compound: values may come before it.

Assays:
[1] = tested on: human washed platelets; assay: Platelet ROS release assay (DCFH-DA); assay type: cell-based; details: luteolin 25 μM, BAY61-3606 63 nM
Protocol: The assay was performed as previously reported with minor modifications ([Arthur et al., 2012]; [Ye et al., 2020]). Briefly, WPs (500 × 10^9/L) were labeled with 5 μM Fluo-3AM (Cat No. IF0150; Solarbio) or 10 μM DCFH-DA (Cat No. D6883; Sigma, St. Louis, MO, United States) at 37°C for 30 min protected from light. […] In addition, 1 mM CaCl2 and collagen or convulxin were added to start the reaction. […] A ROS probe via a fluorescent enzyme marker was added. O2 ^− and H2O2 were measured using 2 μM Amplex Red (Cat No. ST010; Beyotime Institute of Biotechnology, Shanghai, China) or 2 μM Dihydroethidium (DHE, Cat No. S0063; Beyotime Institute of Biotechnology, Shanghai, China). O2 ^− and H2O2 were analyzed using a Fluoroskan Ascent fluorometer (Thermo Fisher, Waltham, Massachusetts, United States).

[2] = tested on: NOXs; assay: NADPH oxidase (NOX) activity assay in platelet lysate; assay type: cell-based, human; details: convulxin (5 ng/mL)- and collagen (10 μg/mL)-induced; VAS2870 10 μM
Protocol: MDA, SOD, GPx, and NADPH oxidase activity were measured as previously described ([Krotz et al., 2002]; [Paul et al., 2019]; [Pan et al., 2021]). After incubation and activation, the reaction was stopped by adding 10 mM EGTA. The platelets were pelleted by centrifugation at 20,000 × g for 10 min at 4°C and resuspended in Tyrode’s buffer with 0.1% phosphatase and protease inhibitors (Cat No. 04906837001, Roche Applied Science, Penzberg, Germany; Cat No. P-8340, Sigma, St. Louis, MO, United States). The platelets were disrupted by passing them 10 times through a 29-gauge needle, followed by centrifugation at 2000 × g for 10 min at 4°C to separate the supernatant and precipitate. The detection of MDA, SOD, and GPx in the supernatant was performed according to the kit’s instructions for SOD (Cat No. BC0170, Solarbio Life Science, Beijing, China), MDA (Cat No. S0131S, Beyotime Institute of Biotechnology, Shanghai, China) and GPx (Cat No. S0056, Beyotime Institute of Biotechnology, Shanghai, China). In order to determine NADPH oxidase (NOX) activity, platelet lysate (12.5 μg) was incubated with 10 µM lucigenin and 0.5 mM NADPH at 37°C in the dark. The absorbance values were detected at 450 nm using a spectrophotometer Multiskan FC (ThermoFisher Scientific Inc., Waltham, MA, United States). Protein content was determined by the Bradford method.

[3] = tested on: mesenteric artery thrombosis; assay: Ferric chloride-induced mesenteric thrombosis in mice; assay type: in vivo, C57BL/6 mice; details: luteolin 35 μM/kg or aspirin 0.5 mM/kg i.p., 30 min before FeCl3
Protocol: A method reported in the literature was used to observe mesenteric artery thrombosis in mice ([Bonnard and […], 2015]). […] The mice were anesthetized by an intraperitoneal injection of pentobarbital (45 mg/kg). They were given an intraperitoneal injection of DMSO, luteolin, or aspirin. They were also given an orbital vein injection of 5 μg/kg rhodamine (Cat No. 83697-250 MG; Sigma-Aldrich, St. Louis, MO, United States) ([Bonnard and […], 2015]), respectively. The mesenteric vessels were exposed by opening the abdominal cavity, and small mesenteric arteries with a diameter of approximately 150-250 μm were selected under the microscope. […] During thrombosis, images were taken every 1 min for the first 10 min and every 5 min after 10 min using an MSHOT MD50 camera (Micro Shot Technology Ltd., Guangzhou, China) and an Olympus ix73 microscope (Olympus Corp., Shinjuku, Japan). […] The size of the thrombus formation was calculated using ImageJ software.

[4] = Tail bleeding in mice; assay type: in vivo, C57BL/6 mice; details: luteolin 35 μM/kg or aspirin i.p., 30 min after injection; vs DMSO
Protocol: The tail break hemorrhage experiment in mice was performed as previously reported, with slight modifications ([Liu et al., 2012]). […] Before the experiment, the mouse tails were immersed in saline for 3 min at 37°C. Then, 30 min after injection, the tails were quickly cut off using a surgical knife blade and placed in saline at 37°C. The cutting site was 5 mm from the end of the tail tip. The bleeding time of the broken tails was observed and recorded.

SMILES: COc1ccc(-c2cc3nccn3c(Nc3ncccc3C(N)=O)n2)cc1OC [BAY61-3606, reference compound]
effect on platelet ROS release ([1]; collagen (10 μg/mL)-induced): decreasing levels
effect on platelet ROS release ([1]; convulxin (5 ng/mL)-induced): decreased

SMILES: c1ccc(Cn2nnc3c(Sc4nc5ccccc5o4)ncnc32)cc1 [VAS2870, reference compound]
NOXs activity [2]: significantly decreased

tail bleeding time [4]: significantly prolonged
SMILES: CC(=O)Oc1ccccc1C(=O)O [aspirin, reference compound]
time of clot obstruction of blood vessels [3]: significantly prolong
time of initial thrombus formation [3]: Neither the 0.5 mM/kg aspirin group or 35 μM/kg luteolin group prolonged
